Converted amounts (≈) assume the structure as drawn. Where two headings read alike, the source gives them in different places. Residues, ends and D or L forms follow the SMILES beside them. No end group written: not given here.
Experiments:
[1] = tested on: S. saprophyticus (ATCC 15305); test: 96-well plate screening of surface conjugated AMPs for biofilm inhibition; format: cell-based; details: AMP tethered on BA coating, polypropylene 96-well plate, 24 h, vs uncoated pp
Procedure: (§1) Screening and Identification of Surface Conjugated AMPs with Anti-Biofilm Activity on a 96-Well Plate Bioluminescence-tagged bacterial strains used in this study included S. aureus (Xen36), P. aeruginosa (PAO1.lux), E. coli (E38.lux), and S. saprophyticus (ATCC 15305). Bacteria were cultured in LB, with shaking at 250 rpm, at 37° C. Bacterial growth was monitored using a spectrophotometer at the optical density of 600 nm (OD600). S. aureus Xen36 was purchased from PerkinElmer Inc.™ while P. aeruginosa PAO1.lux and E. coli E38.lux were generated by conjugating in plasmids that constitutively-expressed lux reporter genes^[40]. The biofilm inhibitory activity of AMPs conjugated onto coated polypropylene surfaces were evaluated in a static microtitre plate assay as previously described with some modifications^[41]. For all experiments, 96-well Costar™ polypropylene plates (Corning™) were used. An overnight culture of selected bacterial strains in LB was diluted to an OD600=0.01 in TSB or basal medium 2 (BM2) supplemented with 0.1% or 0.4% glucose and 0.5 mM MgSO4, (the biofilm growth medium for different bacteria is listed in TABLE 1).
(§2) For inhibition experiments, 100 μL of the diluted overnight culture was added to each well in the plate coated with control coating and AMP coating, respectively. After overnight growth under static condition at 37° C., planktonic cells were removed, adhered biomass rinsed three times with distilled water and subsequently the remaining adhered total biomass was quantified by measuring the luminescence (Total white light) using the Synergy H1™ multimode microtitre plate reader (BioTek™). The remaining adhered S. saprophyticus biomass was quantified using the crystal violet (CV) staining. Briefly, each well was added and incubated with 125 μL of 0.1% (v/v) CV solution for 30 minutes at room temperature with moderate shaking. Then, CV was discarded, and each well was rinsed three times with distilled water. The remaining CV stain was resuspended in 150 μL of 70% ethanol for 30 minutes at room temperature with moderate shaking and then quantified by measuring OD59, using the Synergy H1™ multimode microplate plate reader (BioTek™). The percent biofilm inhibition was calculated in relation to the amount of biofilm grown in the absence of the coating (defined as 100%) and the media sterility control (defined as 0% growth). The experiment was repeated 3 times with 3 technical replicates per biological replicate.

[2] = tested on: S. aureus (Xen36); test: as above; format: cell-based; details: AMP tethered on BA coating, polypropylene 96-well plate, vs uncoated pp
Procedure: as §1, §2

[3] = tested on: S. saprophyticus
Source text: (§3) Ultra-high molecular weight poly(N,N-dimethylacrylamide) (uhPDMA) and high molecular weight poly(N,N-dimethylacrylamide) (hPDMA) were synthesized by atom transfer radical polymerization 391. N-(3-Aminopropyl) methacrylamide hydrochloride (APMA) (98%) was purchased from Polysciences™, USA and was used as supplied. All other reagents including 1, 1, 4, 7, 10, 10-hexamethyl triethylene tetramine (HMTETA) (97%), Tris[2-(dimethylamino)ethyl]amine (Me6TREN) 97%, methyl 2-chloropropionate (97%), CuCl (99%), CuCl2 (99%), 1-thioglycerol (97%) were purchased from Sigma-Aldrich™ (Oakville, ON). A single-side-polished silicon wafer (University Wafer™, Boston, MA) deposited with titanium was prepared by e-beam evaporation of titanium. The process was progressed in a home-assembled Evaporator 2000™ system equipped with a quartz crystal microbalance to monitor the film thickness and a cryo pump to reach high-vacuum (10^−7-10^−6 Torr) condition. After deposition, the substrates were washed with Milli-Q water™, dried via a nitrogen gun, and stored for further usage. SurFlash™I.V. Catheter Cat. #SR*FF1451, #SR*FF2419 (14 Gauge and 24 Gauge) made of polyurethane (PU), were purchased from Terumo™. […] Pure products were finally characterized by analytical reverse phase high performance liquid chromatography (RP-HPLC) and liquid chromatography-mass spectrometry (LC-MS). The broth microdilution method with minor modifications for cationic peptides was used for measuring the MICs of peptides.

[4] = tested on: E. coli
Source text: as §3

[5] = tested on: S. aureus
Source text: as §3

[6] = tested on: P. aeruginosa
Source text: as §3

[7] = tested on: P. aeruginosa (PAO1.lux); test: 96-well plate screening of surface conjugated AMPs for biofilm inhibition; format: cell-based; details: AMP tethered on BA coating, polypropylene 96-well plate, vs uncoated pp
Procedure: as §1, §2

Molecule | reduction of biofilm formation [1] [%] | reduction of biofilm formation [2] [%] | MIC S. saprophyticus [3] [µg/mL] | MIC E. coli [4] [µg/mL] | MIC S. aureus [5] [µg/mL] | MIC P. aeruginosa [6] [µg/mL] | reduction of biofilm formation [7] [%] | MIC S. saprophyticus ([3]; soluble peptide) [µg/mL] | MIC E. coli ([4]; soluble peptide) [µg/mL] | MIC S. aureus ([5]; soluble peptide) [µg/mL] | MIC P. aeruginosa ([6]; soluble peptide) [µg/mL]
CC[C@@H](C)[C@@H](NC(=O)[C@@H](C)NC(=O)[C@@H](CCCNC(=N)N)NC(=O)[C@@H](Cc1c[nH]c2ccccc12)NC(=O)[C@@H](CCC(N)=O)NC(=O)[C@H](N)C(C)C)C(=O)N[C@H](CCCNC(=N)N)C(=O)N[C@@H](C(=O)N[C@H](CCCNC(=N)N)C(=O)N[C@@H](C(=O)N[C@@H](C(=O)N[C@H](CCCNC(=N)N)C(N)=O)[C@H](C)CC)C(C)C)C(C)C [DJK5, vqwrairvrvir] (HELM PEPTIDE1{[dV].[dQ].[dW].[dR].[dA].[dI].[dR].[dV].[dR].[dV].[dI].[dR].[am]}$$$$V2.0; N-terminus assumed) | 83.4 | 90.5 | 2 (≈ 1.29 µM) | 1.6 (≈ 1.03 µM) | 16 (≈ 10.3 µM) | 16 (≈ 10.3 µM) | – | – | – | – | –
CC[C@@H](C)[C@@H](NC(=O)[C@@H](C)NC(=O)[C@@H](CCCNC(=N)N)NC(=O)[C@@H](Cc1c[nH]c2ccccc12)NC(=O)[C@@H](CCC(N)=O)NC(=O)[C@H](N)C(C)C)C(=O)N[C@H](CCCNC(=N)N)C(=O)N[C@@H](C(=O)N[C@H](CCCNC(=N)N)C(=O)N[C@@H](C(=O)N[C@@H](C(=O)N[C@H](CCCNC(=N)N)C(=O)N[C@H](CS)C(N)=O)[C@H](C)CC)C(C)C)C(C)C [DJK5C, vqwrairvrvirc-NH2] (HELM PEPTIDE1{[dV].[dQ].[dW].[dR].[dA].[dI].[dR].[dV].[dR].[dV].[dI].[dR].[dC].[am]}$$$$V2.0; N-terminus assumed) | ~100 | 95.1 | 2 (≈ 1.21 µM) | 4 (≈ 2.42 µM) | 16 (≈ 9.67 µM) | 16 (≈ 9.67 µM) | 99.1 | – | – | – | –
CC[C@H](C)[C@H](NC(=O)[C@H](CCCNC(=N)N)NC(=O)[C@H](Cc1c[nH]c2ccccc12)NC(=O)[C@H](CCCNC(=N)N)NC(=O)[C@@H](N)CCCCN)C(=O)N[C@@H](CCCNC(=N)N)C(=O)N[C@H](C(=O)N[C@@H](CCCNC(=N)N)C(=O)N[C@H](C(=O)N[C@H](C(=O)N[C@@H](CCCNC(=N)N)C(=O)N[C@@H](CCCCN)C(=O)NCCC(=O)NCCC(=O)N[C@@H](CS)C(N)=O)[C@@H](C)CC)C(C)C)C(C)C [Tet20LC, KRWRIRVRVIRK-bA-bA-C—NH2] (HELM PEPTIDE1{K.R.W.R.I.R.V.R.V.I.R.K.[bAla].[bAla].C.[am]}$$$$V2.0; N-terminus assumed) | ~100 | 100 | 2 (≈ 1.05 µM) | 4 (≈ 2.09 µM) | 64 (≈ 33.5 µM) | 16 (≈ 8.38 µM) | 100 | – | – | – | –
ILVRWIRWRIQWC-NH2 [3002C, ILVRWIRWRIQWC-NH2] | – | 93.6 | 8 | 16 | 32 | 128 | 32.4 | – | – | – | –
KRWRIRVRVIRKC-NH2 [Tet20C, KRWRIRVRVIRKC-NH2] | ~100 | 98.8 | 2 | 4 | 64 | 8 | 99.6 | – | – | – | –
VRLIVAVRIWRR-NH2 [IDR-1018, VRLIVAVRIWRR-NH2] | 82.2 | 93.5 | – | – | – | – | 83.2 | 2 | 9.3 | 16 | 64
rivrvrairwqv (RIVRVRAIRWQV; HELM PEPTIDE1{[dR].[dI].[dV].[dR].[dV].[dR].[dA].[dI].[dR].[dW].[dQ].[dV].[am]}$$$$V2.0; N-terminus assumed; SMILES CC[C@@H](C)[C@@H](NC(=O)[C@H](N)CCCNC(=N)N)C(=O)N[C@@H](C(=O)N[C@H](CCCNC(=N)N)C(=O)N[C@@H](C(=O)N[C@H](CCCNC(=N)N)C(=O)N[C@H](C)C(=O)N[C@@H](C(=O)N[C@H](CCCNC(=N)N)C(=O)N[C@H](Cc1c[nH]c2ccccc12)C(=O)N[C@H](CCC(N)=O)C(=O)N[C@@H](C(N)=O)C(C)C)[C@H](C)CC)C(C)C)C(C)C) [RI-DJK5] | – | – | – | – | – | – | 76.2 | – | – | – | –
vqwrrirvwvir (VQWRRIRVWVIR; HELM PEPTIDE1{[dV].[dQ].[dW].[dR].[dR].[dI].[dR].[dV].[dW].[dV].[dI].[dR].[am]}$$$$V2.0; N-terminus assumed; SMILES CC[C@@H](C)[C@@H](NC(=O)[C@@H](CCCNC(=N)N)NC(=O)[C@@H](CCCNC(=N)N)NC(=O)[C@@H](Cc1c[nH]c2ccccc12)NC(=O)[C@@H](CCC(N)=O)NC(=O)[C@H](N)C(C)C)C(=O)N[C@H](CCCNC(=N)N)C(=O)N[C@@H](C(=O)N[C@H](Cc1c[nH]c2ccccc12)C(=O)N[C@@H](C(=O)N[C@@H](C(=O)N[C@H](CCCNC(=N)N)C(N)=O)[C@H](C)CC)C(C)C)C(C)C) [DJK6] | 83.5 | – | – | – | – | – | 58.8 | – | – | – | –

— patent US20240301218A1, “Polymeric Antifouling Coating with Antimicrobial Peptides” (THE UNIVERSITY OF BRITISH COLUMBIA, priority 2021, published 2024)
